Here are results for 10 compounds from patent US9604900B2, “Inhibitors of viral replication, their process of preparation and their therapeutical uses” (LABORATOIRE BIODIM, priority 2011, dated 2017).

This experiment has as its system NL4-3 strain of HIV-1. The experiment is described as follows: HIV replication inhibition: CellTiter-Glo cyto-protection assay in MT4 cells infected with NL4-3 virus. The format is cell-based. The conditions noted are these: Human immunodeficiency virus 1, NL43, 120 h, concentration giving 50% cyto-protection, 5 days incubation, CellTiter-Glo viability readout. As for the experimental part: The antiviral activity, particularly against HIV, of compounds according to the invention is evaluated by the protocol described below.
Preparation of Virus stock of the NL4-3 strain of HIV-1 (Adachi et al, J Virol, 1986, 59(2):284-91).
The virus was prepared as described in Lopez et al (Lopez et al, Proc Natl Acad Sci USA., 2006, 103(40):14947-52, by transfecting 2×10^6 293 T cells (CRL-1573, ATCC) with following modifications: 6 μg of NL4-3 proviral DNA molecular clone were mixed with Fugene 6 transfection reagent from Roche, and used according to manufacturer's instructions. Forty eight hours later, transfected cell supernatants were harvested, filtered through 0.45-μm-pore-size filters, quantified for HIV-1 p24 antigen by using a Innotest HIV antigen mAb assay (Ingen) according to manufacturer's instructions, and used in infection experiments.
Serial dilutions of compounds to be tested were prepared in complete RPMI medium from 10 mM DMSO stock solutions, and distributed in a volume of 20 μl in 96 well Falcon 353072 Microtest™ tissue culture plate, in order to get 0.5% DMSO final concentration in each well, after the addition of infected cells. Control wells contained also 0.5% DMSO final concentration but no compound.
MT4 cells (from the NIH AIDS Research and Reference Reagent Program) in RPMI complete medium were counted (10×10^6 cells per well in Falcon 353047 Multiwell™ 24 well) and infected for 2 hours at 37°, at a multiplicity of infection (moi) of 0.0001-0.00001. Cells were then centrifuged 3 min at 3000 rpm, and washed two times in 1 ml PBS to remove viruses that have not entered in cells. Infected cells were resuspended in complete RPMI at 1.25×10^6 cells/ml, and 80 μl of infected cells were distributed in each well containing compounds to be tested or control wells. The plates were then incubated at 37° for 5 days.
Assay used to measure the inhibition of HIV replication by the compounds (according to Gregg S. Jones et al., Antimicrobial Agents and Chemotherapy, 2009, 53 (3): 1194-1203).
After 5 days of incubation, 50 μl of CellTiter-Glo reagent (Promega Biosciences, Inc., Madison Wis., USA) were added to each well. Cell lysis was carried out at room temperature during 10 min, 150 μl of lysates were transferred in Packard Optiplate 96 well, and luminescence was read on a Fluoroskan (Thermo Scientific).
Usually EC50 stands for the concentration needed to bring the measured effect to its halfway point. Read a low EC50 as greater potency. As to `CC(C)(C)OC(C(=O)O)c1c(-c2ccc3c(c2)CCCO3)ccc2ncccc12` (stereo not shown) [Example 20, 2-(tert-butoxy)-2-[6-(3,4-dihydro-2H-1-benzopyran-6-yl)quinolin-5-yl]acetic acid], the 50% effective concentration (EC50) came out at 3.8 µM.
In turn, `CC(C)(C)OC(C(=O)O)c1c(C(F)(F)F)ccc(OCc2ccccc2)c1-c1ccc2c(c1)CCCO2` (stereo not shown) [Example 35, 2-[3-(benzyloxy)-2-(3,4-dihydro-2H-1-benzopyran-6-yl)-6-(trifluoromethyl)phenyl]-2-(tert-butoxy)acetic acid] displayed an EC50 of 3.2 µM.
For `CC(C)(C)OC(C(=O)O)c1cccc(C(F)(F)F)c1-c1ccc2c(c1)CCCO2` (stereo not shown) [Example 21, 2-(tert-butoxy)-2-[2-(3,4-dihydro-2H-1-benzopyran-6-yl)-3-trifluoromethylphenyl]acetic acid], the concentration for a half-maximal effect (EC50) was 9.7 µM.
Then `CC(C)(C)OC(C(=O)O)c1c(-c2ccc3c(c2)CCCO3)cccc1C(F)(F)F` (stereo not shown) [Example 33, 2-(tert-butoxy)-2-[2-(3,4-dihydro-2H-1-benzopyran-6-yl)-6-(trifluoromethyl)phenyl]acetic acid], with 25 µM; and `CC(C)(C)OC(C(=O)O)c1c(C(F)(F)F)ccc(F)c1-c1ccc2c(c1)CCCO2` (stereo not shown) [Example 34, 2-(tert-butoxy)-2-[2-(3,4-dihydro-2H-1-benzopyran-6-yl)-3-fluoro-6-(trifluoromethyl)phenyl]acetic acid], with 14 µM.
`Cc1ccc(C)c(C(OC(C)(C)C)C(=O)O)c1-c1ccc2c(c1)CCCO2` (stereo not shown) [Example 27, 2-(tert-butoxy)-2-[2-(3,4-dihydro-2H-1-benzopyran-6-yl)-3,6-dimethylphenyl]acetic acid] displayed an EC50 of 1.6 µM.
On to `CC(C)(C)OC(C(=O)O)c1ccc(-c2cccc(-c3cccnc3)c2)cc1-c1ccc2c(c1)CCCO2` (stereo not shown) [Example 30, methyl 2-(tert-butoxy)-2-[2-(3,4-dihydro-2H-1-benzopyran-6-yl)-4-[3-(pyridin-3-yl)phenyl]phenyl]acetic acid], for which the midpoint of the response, the EC50, lay at 4.2 µM.
As for `CC1(C)CC=C(c2cccc(C(F)(F)F)c2C(OC(C)(C)C)C(=O)O)CC1` (stereo not shown) [Example 36, 2-(tert-butoxy)-2-[2-(4,4-dimethylcyclohex-1-en-1-yl)-6-(trifluoromethyl)phenyl]acetic acid], the figure is 4.5 µM; as for `Cc1cccc(C(OC(C)(C)C)C(=O)O)c1-c1ccc2c(c1)CCCO2` (stereo not shown) [Example 11, 2-(tert-butoxy)-2-[2-(3,4-dihydro-2H-1-benzopyran-6-yl)-3-methylphenyl] acetic acid], 48 µM.
As for `Cc1cccc(-c2ccc3c(c2)CCCO3)c1C(OC(C)(C)C)C(=O)O` (stereo not shown) [Example 22, 2-(tert-butoxy)-2-[2-(3,4-dihydro-2H-1-benzopyran-6-yl)-6-methylphenyl]acetic acid], the figure is 26 µM.
